# Assay results published in patent US11090246B2, “Powder hair dye composition” (KAO CORPORATION, priority 2017, dated 2021).
# Assay: pKa and color of the azo dyes on dissociation of a proton
# Assay type: physicochemical
# Excerpt: Therefore, because the components (B) and (C) coexist with the component (A) in the powder hair dye composition of the present invention, a proton of the component (A) is dissociated and a color of the composition becomes close to one after hair dyeing.
row,color assumed by dissociation of a proton,Structure (SMILES)
1,red color,"CSc1nsc(/N=N/c2ccc(O)c(Cl)c2)n1 [(A-1), HC Blue 18]"
2,blue color,"NS(=O)(=O)c1ccc2nsc(/N=N/c3ccc(O)c(Cl)c3)c2c1 [(A-2), HC Red 18]"
3,yellow color,"Cn1nccc1/N=N/c1ccc(O)c(Cl)c1 [(A-3), HC Yellow 16]"
